One assay concerns the target human FPR1 (Homo sapiens (Human), UniProt P21462). The assay is described as follows: FPR1 cyclic adenosine monophosphate (cAMP) assay. The assay is classed as cell-based. As to conditions: CHO cells overexpressing human FPR1; forskolin 10 µM; inhibition of cAMP production; read-out: hFPR1 cAMP EC50. The method in brief: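 Human FPR1-expressing CHO cells were used at 4,000 per well, with compound at 0.020 nM–100 µM in 1% DMSO. Potency came from a 4-parameter logistic fit.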

A further assay deals with human FPR2 (Homo sapiens (Human), UniProt P25090). The assay is described as follows: FPR2 cyclic adenosine monophosphate (cAMP) assay. The assay is classed as cell-based. As to conditions: CHO cells overexpressing human FPR2; forskolin 5 µM; inhibition of cAMP production; read-out: hFPR2 cAMP2 EC50. The method, boiled down:
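Inhibition of forskolin-driven (5 µM) cAMP, with 200 µM IBMX, measured in human FPR2-expressing CHO cells, 2,000 per well, 30 min at room temperature; compounds tested 0.020 nM to 100 µM in 1% DMSO. HTRF 665/590 ratio converted to cAMP via calibration curve, then 4-parameter fit.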

Molecules are shown by their SMILES. A value given as a limit tells only on which side of the number the result lay.

human FPR2, sequence (P25090 whole entry): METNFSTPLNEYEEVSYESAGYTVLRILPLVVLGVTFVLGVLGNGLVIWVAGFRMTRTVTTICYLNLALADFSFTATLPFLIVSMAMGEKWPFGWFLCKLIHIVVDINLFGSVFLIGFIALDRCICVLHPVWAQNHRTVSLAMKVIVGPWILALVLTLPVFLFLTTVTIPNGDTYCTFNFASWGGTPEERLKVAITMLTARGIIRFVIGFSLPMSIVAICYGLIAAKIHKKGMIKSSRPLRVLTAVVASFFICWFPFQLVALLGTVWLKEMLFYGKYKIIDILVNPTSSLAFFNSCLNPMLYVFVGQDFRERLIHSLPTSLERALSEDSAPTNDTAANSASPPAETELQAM
human FPR1, sequence (P21462 whole entry): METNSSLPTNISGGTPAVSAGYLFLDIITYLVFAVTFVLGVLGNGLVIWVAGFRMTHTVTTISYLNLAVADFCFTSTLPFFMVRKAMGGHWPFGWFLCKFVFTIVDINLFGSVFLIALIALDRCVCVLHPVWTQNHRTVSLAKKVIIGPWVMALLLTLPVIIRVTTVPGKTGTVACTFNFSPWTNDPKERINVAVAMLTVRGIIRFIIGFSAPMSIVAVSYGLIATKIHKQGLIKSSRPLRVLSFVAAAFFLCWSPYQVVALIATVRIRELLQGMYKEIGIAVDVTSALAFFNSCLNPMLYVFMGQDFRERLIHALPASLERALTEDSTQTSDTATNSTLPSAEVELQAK

The term EC50 denotes the concentration giving half of the maximal effect. As to `COCC(C(=O)N(C)C)n1cccc(N2C[C@@H](c3c(F)cc(OC)cc3F)[C@H](NC(=O)c3ccc(OC(F)(F)F)cc3)C2=O)c1=O` (some centres unmarked) [Example 134], the EC50 stood at 1.6 nM at human FPR1 and 3.5 nM at human FPR2.

Consider `COc1cc(F)c([C@@H]2CN(c3nc(N4CCC(O)C4=O)ccc3F)C(=O)[C@H]2NC(=O)c2ccc(OC(F)F)cc2)c(F)c1` (some centres unmarked) [Example 135], for which the EC50 on human FPR1 stood at 58 nM; on human FPR2 it was 3.5 nM.

For the molecule `COCC(CO)n1cccc(N2C[C@@H](c3ccc(OC)cc3)[C@H](NC(=O)c3ccc(OC(F)(F)F)cc3)C2=O)c1=O` (some centres unmarked) [Example 136], the EC50 at human FPR1 was determined as 2.2 nM; on human FPR2 it was 3.5 nM.

With `COCCn1cccc(N2C[C@@H](c3c(F)cc(OC)cc3F)[C@H](NC(=O)c3ccc(Cl)cc3)C2=O)c1=O` [Example 137], the results for the EC50 at human FPR1 and at human FPR2 were 190 nM and 3.5 nM, respectively.

As for `COc1cc(F)c([C@@H]2CN(c3cccn(CC(C)OC)c3=O)C(=O)[C@H]2NC(=O)c2ccc(OC(F)(F)F)cc2)c(F)c1` (some centres unmarked) [Example 138], the EC50 was determined as 1.7 nM at human FPR1 and 3.5 nM at human FPR2.

For `COc1cc(F)c([C@@H]2CN(c3ccc(CO)[nH]c3=O)C(=O)[C@H]2NC(=O)c2ccc(OC(F)F)cc2)c(F)c1` [Example 139], the EC50 was 570 nM on human FPR1 and 3.5 nM at human FPR2.

`COc1cc(F)c([C@@H]2CN(c3ccc(C)n(C)c3=O)C(=O)[C@H]2NC(=O)c2ccc(Cl)cc2)c(F)c1` [Example 140]: the values for the EC50 at human FPR1 and at human FPR2 were 610 nM and 3.5 nM, respectively.

As for `COc1cc(F)c([C@@H]2CN(c3cccn(CC(C)O)c3=O)C(=O)[C@H]2NC(=O)c2ccc(OC(F)F)cc2)c(F)c1` (some centres unmarked) [Example 141], the EC50 on human FPR1 is 29 nM; on human FPR2, 3.6 nM.

Turning to `COCC(CO)n1cccc(N2C[C@@H](c3c(F)cc(OC)cc3F)[C@H](NC(=O)c3ccc(OC(F)F)cc3)C2=O)c1=O` (some centres unmarked) [Example 142], the EC50 is 87 nM at human FPR1 and 3.6 nM on human FPR2.

Consider `COc1ccc([C@@H]2CN(c3cccn(CCO)c3=O)C(=O)[C@H]2NC(=O)c2ccc(OC(F)F)cc2)c(F)c1` [Example 143], for which the EC50 is 53 nM on human FPR1 and 3.6 nM at human FPR2.

Regarding `COCC(CO)n1cccc(N2C[C@@H](c3c(F)cc(OC)cc3F)[C@H](NC(=O)c3ccc(OC(F)(F)F)cc3)C2=O)c1=O` (some centres unmarked) [Example 144], the EC50 came to 23.1 nM on human FPR1 and 3.6 nM at human FPR2.

For the molecule `COc1cc(F)c([C@@H]2CN(c3cccn(CC(F)F)c3=O)C(=O)[C@H]2NC(=O)c2ccc(OC(F)F)cc2)c(F)c1` [Example 145], the EC50 amounted to 8.2 nM at human FPR1 and 3.7 nM on human FPR2.

Consider `COc1cc(F)c([C@@H]2CN(c3nc(NC(C)=O)ccc3F)C(=O)[C@H]2NC(=O)c2ccc(OC(F)F)cc2)c(F)c1` [Example 146], for which the EC50 was 150 nM on human FPR1 and 3.8 nM at human FPR2.

Consider `COc1cc(F)c([C@@H]2CN(c3cccn(CC(OC)C(F)(F)F)c3=O)C(=O)[C@H]2NC(=O)c2ccc(OC(F)(F)F)cc2)c(F)c1` (some centres unmarked) [Example 147], for which the EC50 on human FPR1 stood at 2.2 nM; on human FPR2 it was 3.8 nM.

`COc1cc(F)c([C@@H]2CN(c3cccn(CC(F)F)c3=O)C(=O)[C@H]2NC(=O)c2ccc(OC(F)(F)F)cc2)c(F)c1` [Example 148]: the EC50 on human FPR1 was determined as 19 nM; at human FPR2, 3.8 nM.

Regarding `COc1cc(F)c([C@@H]2CN(c3c(C)ccn(CC4CC4)c3=O)C(=O)[C@H]2NC(=O)c2ccc(OC(F)(F)F)cc2)c(F)c1` [Example 151], the values for the EC50 on human FPR1 and on human FPR2 were 0.5 nM and 3.9 nM, respectively.

On to `COc1cc(F)c([C@@H]2CN(c3ccnc(N4C[C@@H](C)N(C)[C@@H](C)C4)c3C(F)(F)F)C(=O)[C@H]2NC(=O)c2ccc(OC(F)F)cc2)c(F)c1` [Example 152], for which the results for the EC50 at human FPR1 and on human FPR2 were 460 nM and 3.9 nM, respectively.

Turning to `COCC(CO)n1cccc(N2C[C@@H](c3c(F)cc(OC)cc3F)[C@H](NC(=O)c3ccc(OC(F)(F)F)cc3)C2=O)c1=O` (some centres unmarked) [Example 153], the EC50 stood at 4.2 nM on human FPR1 and 4 nM on human FPR2.

On to `COCC(CO)n1cccc(N2C[C@@H](c3ccc(Cl)cc3)[C@H](NC(=O)c3ccc(OC(F)(F)F)cc3)C2=O)c1=O` (some centres unmarked) [Example 154], for which the EC50 on human FPR1 stood at 3.3 nM; on human FPR2, 4 nM.

In the case of `COc1cc(F)c([C@@H]2CN(c3cccn(CC(O)C(F)(F)F)c3=O)C(=O)[C@H]2NC(=O)c2ccc(OC(F)(F)F)cc2)c(F)c1` (some centres unmarked) [Example 155], the EC50 on human FPR1 was determined as 9.3 nM; at human FPR2, 4 nM.

Consider `COc1cc(F)c([C@@H]2CN(c3cccn(CC(OC)C(F)(F)F)c3=O)C(=O)[C@H]2NC(=O)c2ccc(OC(F)(F)F)cc2)c(F)c1` (some centres unmarked) [Example 156], for which the EC50 on human FPR1 amounted to 1.3 nM; at human FPR2, 4 nM.

As to `COc1cc(F)c([C@@H]2CN(c3cccnc3OC3CCOC3)C(=O)[C@H]2NC(=O)c2ccc(OC(F)F)cc2)c(F)c1` (some centres unmarked) [Example 157], the EC50 was 100 nM on human FPR1 and 4 nM at human FPR2.

For `CCn1cccc(N2C[C@@H](c3c(F)cc(OC)cc3F)[C@H](NC(=O)c3ccc(C(F)(F)F)cc3)C2=O)c1=O` [Example 159], the values for the EC50 at human FPR1 and at human FPR2 were 74 nM and 4.1 nM, respectively.

Turning to `COc1cc(F)c([C@@H]2CN(c3nccc(N4C[C@@H]5C[C@H]4CN5C)c3C#N)C(=O)[C@H]2NC(=O)c2ccc(Cl)cc2)c(F)c1` [Example 160], the EC50 worked out at 1100 nM at human FPR1 and 4.1 nM at human FPR2.

With `COc1cc(F)c([C@@H]2CN(c3cccn(CC(OC)C(F)(F)F)c3=O)C(=O)[C@H]2NC(=O)c2ccc(OC(F)F)cc2)c(F)c1` (some centres unmarked) [Example 161], the EC50 at human FPR1 was determined as 3.4 nM; on human FPR2, 4.1 nM.

Regarding `COCCn1cccc(N2C[C@@H](c3ccc(Cl)cc3)[C@H](NC(=O)c3ccc(OC(F)F)cc3)C2=O)c1=O` [Example 162], the EC50 is 9.4 nM on human FPR1 and 4.1 nM on human FPR2.

Turning to `COc1cc(F)c([C@@H]2CN(c3nccc(NC4CC4)c3C(F)(F)F)C(=O)[C@H]2NC(=O)c2ccc(Cl)cc2)c(F)c1` [Example 163], the EC50 on human FPR1 was found to be 1200 nM; at human FPR2, 4.2 nM.

Consider `COc1cc(F)c([C@@H]2CN(c3cccn(CCN4CC5(COC5)C4)c3=O)C(=O)[C@H]2NC(=O)c2ccc(OC(F)F)cc2)c(F)c1` [Example 164], for which the EC50 came out at 290 nM on human FPR1 and 4.2 nM at human FPR2.

Turning to `CCn1ccc(C)c(N2C[C@@H](c3ccc(OC)cc3F)[C@H](NC(=O)c3ccc(OC(F)F)cc3)C2=O)c1=O` [Example 165], the values for the EC50 at human FPR1 and on human FPR2 were 1.7 nM and 4.2 nM, respectively.

With `COc1cc(F)c([C@@H]2CN(c3nccc(NCC(C)(C)O)c3C(F)(F)F)C(=O)[C@H]2NC(=O)c2ccc(Cl)cc2)c(F)c1` [Example 166], the EC50 on human FPR1 stood at 2300 nM; at human FPR2, 4.3 nM.

Turning to `COc1cc(F)c([C@@H]2CN(c3nccc(N4C[C@@H](C)N(C)[C@@H](C)C4)c3C#N)C(=O)[C@H]2NC(=O)c2ccc(Cl)cc2)c(F)c1` [Example 167], the EC50 is more than 10000 nM on human FPR1 and 4.3 nM at human FPR2.

In the case of `COc1cc(F)c([C@@H]2CN(c3cc(C(F)(F)F)cn(C)c3=O)C(=O)[C@H]2NC(=O)c2ccc(OC(F)F)cc2)c(F)c1` [Example 168], the results for the EC50 on human FPR1 and on human FPR2 were 1600 nM and 4.3 nM, respectively.

With `CCn1cccc(N2C[C@@H](c3c(F)cc(OC)cc3F)[C@H](NC(=O)c3ccc(OC(F)F)cc3)C2=O)c1=O` [Example 169], the EC50 is 21 nM on human FPR1 and 4.3 nM on human FPR2.

For `CCn1ccc(C)c(N2C[C@@H](c3ccc(OC)cc3)[C@H](NC(=O)c3ccc(OC(F)(F)F)cc3)C2=O)c1=O` [Example 170], the EC50 at human FPR1 is 0.9 nM; at human FPR2, 4.4 nM.

As for `COCC(C(=O)N(C)C)n1cccc(N2C[C@@H](c3c(F)cc(OC)cc3F)[C@H](NC(=O)c3ccc(OC(F)F)cc3)C2=O)c1=O` (some centres unmarked) [Example 172], the EC50 turned out to be 39 nM at human FPR1 and 4.5 nM on human FPR2.

Turning to `COc1cc(F)c([C@@H]2CN(c3cccn(CC(C)O)c3=O)C(=O)[C@H]2NC(=O)c2ccc(OC(F)(F)F)cc2)c(F)c1` (some centres unmarked) [Example 173], the EC50 turned out to be 12 nM on human FPR1 and 4.5 nM at human FPR2.

For the molecule `COc1cc(F)c([C@@H]2CN(c3cccn(CCO)c3=O)C(=O)[C@H]2NC(=O)c2ccc(OC(F)(F)F)cc2)c(F)c1` [Example 174], the EC50 was 67 nM on human FPR1 and 4.5 nM at human FPR2.

`COCC(CO)n1cccc(N2C(=O)[C@@H](NC(=O)c3ccc(OC(F)(F)F)cc3)[C@H](c3c(F)cc(OC)cc3F)[C@@H]2C)c1=O` (some centres unmarked) [Example 175]: the EC50 was determined as 9.3 nM at human FPR1 and 4.6 nM at human FPR2.

As for `COc1cc(F)c([C@@H]2CN(c3c(C)ccn(CC(C)O)c3=O)C(=O)[C@H]2NC(=O)c2ccc(OC(F)F)cc2)c(F)c1` (some centres unmarked) [Example 176], the values for the EC50 at human FPR1 and at human FPR2 were 6.5 nM and 4.6 nM, respectively.

As to `COc1cc(F)c([C@@H]2CN(c3nc(N(C)C(C)=O)ccc3F)C(=O)[C@H]2NC(=O)c2ccc(OC(F)F)cc2)c(F)c1` [Example 177], the EC50 at human FPR1 is 15 nM; on human FPR2 it was 4.6 nM.

For `COCCn1ccc(C)c(N2C[C@@H](c3ccc(OC)cc3)[C@H](NC(=O)c3ccc(OC(F)(F)F)cc3)C2=O)c1=O` [Example 178], the EC50 on human FPR1 worked out at 0.1 nM; on human FPR2, 4.7 nM.

For the molecule `COc1cc(F)c([C@@H]2CN(c3cccn(CC(C)(CO)CO)c3=O)C(=O)[C@H]2NC(=O)c2ccc(OC(F)F)cc2)c(F)c1` [Example 179], the EC50 on human FPR1 was 92 nM; on human FPR2 it was 4.7 nM.

Turning to `COc1cc(N2C[C@@H](C)N(C)[C@@H](C)C2)nc(N2C[C@@H](c3c(F)cc(OC)cc3F)[C@H](NC(=O)c3ccc(Cl)cc3)C2=O)c1` [Example 180], the EC50 on human FPR1 was more than 10000 nM; on human FPR2, 4.7 nM.

(Values after patent publication US20230348426A1, “OXOPYRROLIDINE FPR2 AGONISTS” (Bristol-Myers Squibb Company, priority 2020, published 2023).)
